Patent US20240041042A1, “1-(PYRIDYL)-5-AZINYLPYRAZOLE DERIVATIVES, AND THEIR USE FOR CONTROL OF UNDESIRED PLANT GROWTH” (Bayer Aktiengesellschaft, priority 2020, published 2024)

How the values were obtained:
Assay type in all cases: in vivo
[1] = test system: Matricaria inodora (MATIN); test: Post-emergence herbicidal action against MATIN
In short: (§1)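 Doses of 320 g/ha or lower, suffixes a, b and c marking different dosages, were applied post-emergence at the one-leaf stage in 600 l/ha water with 0.5% additive. Damage was assessed visually after about 3 weeks in the greenhouse.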

[2] = test system: Verconica persica (VERPE); test: Pre-emergence herbicidal action against VERPE
In short: (§2)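 Pre-emergence soil-surface spray, WP/EC formulation, 0.5% additive, 600 l/ha water, rates of 320 g/ha or lower. Greenhouse, ~3 wk. Visual score, % of untreated control (100% = plants dead, 0% = like control).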

[3] = test system: Polygonum convolvulus (POLCO); test: Pre-emergence herbicidal action against POLCO
In short: as §2

Setaria viridis (SETVI) = test: Post-emergence herbicidal action against SETVI
In short: as §1

Lolium rigidum (LOLRI) = test: Post-emergence herbicidal action against LOLRI
In short: as §1

[4] = test system: Alopecurus myosuroides (ALOMY); test: Pre-emergence herbicidal action against ALOMY; settings: scored visually after about 3 weeks, 100% = plants have died
In short: as §2

[5] = test system: Polygonum convolvulus (POLCO); test: Post-emergence herbicidal action against POLCO
In short: as §1

Avena fatua (AVEFA) [6] = test: Pre-emergence herbicidal action against AVEFA; settings: visual scoring after about 3 weeks vs untreated controls
In short: as §2

Viola tricolor (VIOTR) = test: Pre-emergence herbicidal action against VIOTR
In short: as §2

Avena fatua (AVEFA) [7] = test: Post-emergence herbicidal action against AVEFA; settings: visual rating about 3 weeks after treatment
In short: as §1

SMILES | Post-emergence action against MATIN in % ([1]; dosage 80 g/ha) [%] | Post-emergence action against MATIN in % ([1]; dosage 320 g/ha) [%] | Pre-emergence action against VERPE in % ([2]; dosage 80 g/ha) [%] | Pre-emergence action against VERPE in % ([2]; dosage 320 g/ha) [%] | Pre-emergence action against POLCO in % ([3]; dosage 80 g/ha) [%] | Pre-emergence action against POLCO in % ([3]; dosage 320 g/ha) [%] | Post-emergence action against SETVI in % (Setaria viridis (SETVI); dosage 80 g/ha) [%] | Post-emergence action against SETVI in % (Setaria viridis (SETVI); dosage 320 g/ha) [%] | Post-emergence action against LOLRI in % (Lolium rigidum (LOLRI); dosage 320 g/ha) [%] | Pre-emergence action against ALOMY ([4]; 80 g/ha) [%] | Pre-emergence action against ALOMY ([4]; 320 g/ha) [%] | Post-emergence action against POLCO in % ([5]; dosage 320 g/ha) [%] | Pre-emergence action against AVEFA in % (Avena fatua (AVEFA) [6]; 80 g/ha) [%] | Pre-emergence action against AVEFA in % (Avena fatua (AVEFA) [6]; 320 g/ha) [%] | Pre-emergence action against VIOTR in % (Viola tricolor (VIOTR); 320 g/ha, Viola tricolor) [%] | Pre-emergence action against VIOTR in % (Viola tricolor (VIOTR); dosage 80 g/ha) [%] | Post-emergence action against LOLRI in % (Lolium rigidum (LOLRI); dosage 80 g/ha) [%] | Post-emergence action against POLCO in % ([5]; dosage 80 g/ha) [%] | Post-emergence action against AVEFA in % (Avena fatua (AVEFA) [7]; 320 g/ha) [%] | Post-emergence action against AVEFA in % (Avena fatua (AVEFA) [7]; 80 g/ha) [%]
CCOC(=O)[C@@H](C)Oc1nn(-c2nc(F)ccc2F)c(-c2cncc(F)c2)c1Cl [Example I-208] | 80 | 80 | 90 | 100 | 90 | 90 | 80 | 80 | 80 | 90 | 100 | 80 | 80 | 90 | 100 | 100 | – | – | – | –
CCOC(=O)COc1nn(-c2ccccn2)c(-c2ccc(F)nc2)c1Br [Example I-02] | 80 | 80 | – | 90 | 80 | 80 | 80 | 80 | 80 | 100 | 90 | 80 | 90 | 100 | 100 | 100 | 80 | 80 | 80 | –
COC(=O)[C@@H](C)Oc1nn(-c2ncccc2F)c(-c2ccc(F)nc2)c1C1CC1 [Example I-307] | – | 80 | 90 | 100 | 90 | 100 | 90 | 90 | 100 | 80 | 90 | 80 | 90 | 100 | 100 | 100 | 100 | 80 | 90 | 90
COC(=O)[C@@H](C)Oc1nn(-c2ncccc2F)c(-c2ccc(F)nc2)c1Br [Example I-05, Methyl (2R)-2-{[4-bromo-1-(3-fluoropyridin-2-yl)-5-(6-fluoropyridin-3-yl)-1H-pyrazol-3-yl]oxy}propanoate] | – | 100 | 100 | 100 | 90 | 90 | 80 | 90 | 90 | 90 | 100 | 90 | – | 90 | 100 | 90 | – | 90 | 90 | 90
COCCOC(=O)COc1nn(-c2ccccn2)c(-c2ccc(F)nc2)c1Br [Example I-96] | – | 80 | 90 | 90 | 90 | 90 | 90 | 90 | 90 | 80 | 100 | 80 | – | 90 | 90 | – | 90 | 80 | 90 | 80
COC(=O)[C@@H](C)Oc1nn(-c2nc(F)ccc2F)c(-c2cncc(F)c2)c1C1CC1 [Example I-171] | 80 | 90 | 100 | 100 | 90 | 90 | 90 | 90 | 90 | 100 | 100 | 90 | 90 | 100 | 100 | 100 | 80 | 80 | 90 | 90
COC(=O)[C@@H](C)Oc1nn(-c2nc(F)ccc2F)c(-c2cncc(F)c2)c1Br [Example I-191] | – | 80 | 100 | 100 | 80 | 90 | 80 | 80 | 90 | 80 | 90 | – | – | 100 | 100 | 100 | 90 | – | 90 | 80
COC(=O)[C@@H](C)Oc1nn(-c2ccccn2)c(-c2cncc(F)c2)c1Cl [Example I-189] | 90 | 90 | 90 | 100 | 100 | 100 | 90 | 90 | 100 | 80 | 90 | – | 90 | 90 | 100 | 100 | 100 | – | 90 | 90
COC(=O)C(C)COC(=O)[C@@H](C)Oc1nn(-c2ccccn2)c(-c2cncc(F)c2)c1Cl (stereo partly shown) [Example I-198] | – | 80 | 90 | 100 | 90 | 90 | 80 | 80 | 80 | 80 | 90 | – | – | 90 | 100 | 90 | 80 | – | 80 | 80
